One may read the AC50 as the concentration at which the activity in the assay is half-maximal.

SMILES strings stand for the structures.

One test concerns HT-29 viability, CellTiter-Glo ATP luminescence, 8-48 h. The experiment in a line: HT-29 colorectal cell cytotoxicity over time, dose response, HRas target identification project, CellTiter-Glo, multiple timepoints, dry powder (AID 720598). Particulars: measured here: 8 h treatment. For orientation: Cellular ATP, detected with luciferase, serves as a proxy for viable cell number.
The molecule `COC(=O)c1ccc([C@@H]2c3[nH]c4ccccc4c3C[C@@H](C(=O)OC)N2C(=O)CCl)cc1` displayed an AC50 of 0.486 µM.

With `Cc1onc(C(=O)N2CCN(C(c3ccc(Cl)cc3)c3ccc(Cl)cc3)CC2)c1[N+](=O)[O-]`, the AC50 turned out to be 2.76 µM.

Consider `COc1ccc(N(C(=O)CCl)C(C(=O)NCCc2ccccc2)c2cccs2)cc1Cl` (stereo unspecified), for which the AC50 was 0.729 µM.

For `C#CCCCC(=O)NCCOCCOCCOc1ccc(N(C(=O)CCl)C(C(=O)NCCc2ccccc2)c2cccs2)cc1Cl` (stereo unspecified), the AC50 is 11.9 µM.

Consider `CC(C)(C)OC(=O)NCCOCCOCCOc1ccc(N(C(=O)CCl)C(C(=O)NCCc2ccccc2)c2cccs2)cc1Cl` (stereo unspecified), for which the AC50 turned out to be 0.742 µM.

Staying with this test, now noted: measured here: 24 h treatment.
For the molecule `COC(=O)c1ccc([C@@H]2c3[nH]c4ccccc4c3C[C@@H](C(=O)OC)N2C(=O)CCl)cc1`, the AC50 was found to be 0.133 µM.

`Cc1onc(C(=O)N2CCN(C(c3ccc(Cl)cc3)c3ccc(Cl)cc3)CC2)c1[N+](=O)[O-]` returned an AC50 of 0.594 µM.

For `COc1ccc(N(C(=O)CCl)C(C(=O)NCCc2ccccc2)c2cccs2)cc1Cl` (stereo unspecified), the AC50 stood at 0.103 µM.

The molecule `C#CCCCC(=O)NCCOCCOCCOc1ccc(N(C(=O)CCl)C(C(=O)NCCc2ccccc2)c2cccs2)cc1Cl` (stereo unspecified) had an AC50 of 1.51 µM.

In the case of `CC(C)(C)OC(=O)NCCOCCOCCOc1ccc(N(C(=O)CCl)C(C(=O)NCCc2ccccc2)c2cccs2)cc1Cl` (stereo unspecified), the AC50 amounted to 0.448 µM.

The test is the same for the next values; noted with them: measured here: 48 h treatment.
`COC(=O)c1ccc([C@@H]2c3[nH]c4ccccc4c3C[C@@H](C(=O)OC)N2C(=O)CCl)cc1` registered an AC50 of 0.0856 µM.

The molecule `CCC(=O)N(c1ccc(OC)c(Cl)c1)C(C(=O)NCCc1ccccc1)c1cccs1` (stereo unspecified) showed an AC50 greater than 70 µM.

Molecule `Cc1onc(C(=O)N2CCN(C(c3ccc(Cl)cc3)c3ccc(Cl)cc3)CC2)c1[N+](=O)[O-]` returned an AC50 of 0.544 µM.

Take `COc1ccc(N(C(=O)CCl)C(C(=O)NCCc2ccccc2)c2cccs2)cc1Cl` (stereo unspecified): the AC50 is 0.0561 µM.

In the case of `C#CCCCC(=O)NCCOCCOCCOc1ccc(N(C(=O)CCl)C(C(=O)NCCc2ccccc2)c2cccs2)cc1Cl` (stereo unspecified), the AC50 came out at 1.3 µM.

Take `CC(C)(C)OC(=O)NCCOCCOCCOc1ccc(N(C(=O)CCl)C(C(=O)NCCc2ccccc2)c2cccs2)cc1Cl` (stereo unspecified): the AC50 amounted to 0.287 µM.

For the origin of these results see PubChem BioAssay AID720598 (Broad Institute, 2013).
